Where “and” joins values, the source holds several entries; their conditions need not be identical. Equal entries are not always repeated. Inconclusive results and toxic doses are left out.
System: L1210 leukemia ip in BDF1 mice, survival T/C
Test: NCI In Vivo Anticancer Drug Screen. Data for tumor model L1210 Leukemia (intraperitoneal) in B6D2F1 (BDF1) mice
Conditions: endpoint: mean survival time, higher = longer survival
In short: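 Tumor cells were implanted, animals were treated, and survival was followed. The result divides the treated measurement by the vehicle-control measurement.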

[1] = dose: 100.0 mg/kg/injection, schedule: Q04DX003 (ip), vehicle: Klucel (hydroxypropylcellulose) (HPC)
[2] = dose: 100.0 mg/kg/injection, schedule: Q04DX003 (ip), vehicle: saline with Tween-80
[3] = dose: 200.0 mg/kg/injection, schedule: Q04DX003 (ip), vehicle: Klucel (hydroxypropylcellulose) (HPC)
[4] = dose: 200.0 mg/kg/injection, schedule: Q04DX003 (ip), vehicle: saline with Tween-80
[5] = dose: 400.0 mg/kg/injection, schedule: Q04DX003 (ip), vehicle: Klucel (hydroxypropylcellulose) (HPC)
[6] = dose: 400.0 mg/kg/injection, schedule: Q04DX003 (ip), vehicle: saline with Tween-80
[7] = dose: 100.0 mg/kg/injection, schedule: Q01DX009 (ip), vehicle: saline with Tween-80
[8] = dose: 200.0 mg/kg/injection, schedule: Q01DX009 (ip), vehicle: saline with Tween-80
[9] = dose: 400.0 mg/kg/injection, schedule: Q01DX009 (ip), vehicle: saline with Tween-80
[10] = dose: 100.0 mg/kg/injection, schedule: Q01DX009 (ip), vehicle: Klucel (hydroxypropylcellulose) (HPC)
[11] = dose: 200.0 mg/kg/injection, schedule: Q01DX009 (ip), vehicle: Klucel (hydroxypropylcellulose) (HPC)
[12] = dose: 400.0 mg/kg/injection, schedule: Q01DX009 (ip), vehicle: Klucel (hydroxypropylcellulose) (HPC)
[13] = dose: 75.0 mg/kg/injection, schedule: Q04DX003 (ip), vehicle: saline
[14] = dose: 150.0 mg/kg/injection, schedule: Q04DX003 (ip), vehicle: saline

CCC1=C[C@H]2CN(CCc3c([nH]c4ccccc34)[C@@](C(=O)OC)(c3cc4c(cc3OC)N(C)[C@H]3[C@@](O)(C(=O)NC)[C@H](OC(C)=O)[C@]5(CC)C=CCN6CC[C@]43[C@@H]65)C2)C1 was tested, and the T/C (dose: 0.03 mg/kg/injection, schedule: Q01DX009 (ip), vehicle: saline) was 103 % of control, the T/C (dose: 0.03 mg/kg/injection, schedule: Q01DX009 (ip), vehicle: water) was 103 % of control and the T/C (dose: 0.06 mg/kg/injection, schedule: Q01DX009 (ip), vehicle: saline) was 114 % of control. For the same compound, the T/C (dose: 0.06 mg/kg/injection, schedule: Q01DX009 (ip), vehicle: water) was 115 % of control, the T/C (dose: 0.12 mg/kg/injection, schedule: Q01DX009 (ip), vehicle: saline) was 117 % of control and the T/C (dose: 0.25 mg/kg/injection, schedule: Q01DX009 (ip), vehicle: saline) was 114 % of control. For the same compound, the T/C (dose: 0.25 mg/kg/injection, schedule: Q01DX009 (ip), vehicle: water) was 157 % of control, the T/C (dose: 1.0 mg/kg/injection, schedule: Q01DX009 (ip), vehicle: saline) was 120 % of control and the T/C (dose: 1.0 mg/kg/injection, schedule: Q01DX009 (ip), vehicle: water) was 118 % of control.
For CC1=NNC(=O)C1, the T/C (dose: 50.0 mg/kg/injection, schedule: Q01DX009 (ip), vehicle: carboxymethylcellulose (CMC)) was 100 % of control, the T/C (dose: 100.0 mg/kg/injection, schedule: Q01DX009 (ip), vehicle: carboxymethylcellulose (CMC)) was 114 % of control and the T/C [1] was 89 % of control. For the same compound, the T/C [2] was 112 % of control, the T/C (dose: 200.0 mg/kg/injection, schedule: Q01DX009 (ip), vehicle: carboxymethylcellulose (CMC)) was 114 % of control and the T/C [3] was 98 % of control. For the same compound, the T/C [4] was 105 % of control, the T/C [5] was 96 % of control and the T/C [6] was 112 % of control.
In the case of N#Cc1cc2c3c(c1)CCCN3CCC2, the T/C (dose: 50.0 mg/kg/injection, schedule: Q01DX009 (ip), vehicle: saline with Tween-80) is reported as 91 % of control, the T/C [7] is reported as 93 % of control and the T/C [8] is reported as 90 % of control. For the same compound, the T/C [9] was 96 % of control.
For CCC(SC#N)C(CC)SC#N (stereo not drawn), the T/C (dose: 12.5 mg/kg/injection, schedule: Q04DX002 (ip), vehicle: Klucel (hydroxypropylcellulose) (HPC)) was 103 % of control, the T/C (dose: 25.0 mg/kg/injection, schedule: Q04DX002 (ip), vehicle: Klucel (hydroxypropylcellulose) (HPC)) was 93 % of control and the T/C (dose: 50.0 mg/kg/injection, schedule: Q04DX002 (ip), vehicle: Klucel (hydroxypropylcellulose) (HPC)) was 90 % of control.
With COc1ccc(OC)c(/C=C/C(=O)c2ccc(Cl)cc2)c1 the T/C [1] was 94 % of control, the T/C [3] was 94 % of control and the T/C [5] was 97 % of control.
For NC(=O)N/N=C1\CCCC(CCC(=O)O)C1 (stereo not drawn), the T/C (dose: 75.0 mg/kg/injection, schedule: Q01DX009 (ip), vehicle: other) was 101 % of control, the T/C (dose: 100.0 mg/kg/injection, schedule: Q01DX001 (ip), vehicle: saline) was 89 % of control and the T/C (dose: 150.0 mg/kg/injection, schedule: Q01DX009 (ip), vehicle: other) was 93 % of control. For the same compound, the T/C (dose: 200.0 mg/kg/injection, schedule: Q01DX001 (ip), vehicle: saline) was 108 % of control, the T/C (dose: 300.0 mg/kg/injection, schedule: Q01DX009 (ip), vehicle: other) was 94 % of control and the T/C (dose: 400.0 mg/kg/injection, schedule: Q01DX001 (ip), vehicle: saline) was 100 % of control.
For O=C(CC1=CCCCC1)c1ccccc1, the T/C [10] was 103 % of control, the T/C [11] was 100 % of control and the T/C [12] was 97 % of control.
O=C1NC(c2c(Cl)cccc2Cl)Nc2ccccc21 (stereo not drawn) was tested, and the T/C [1] was 100 % of control, the T/C [3] was 100 % of control and the T/C [5] was 111 % of control.
CCOC(=O)C(CCC(C)C)C(C)=O (stereo not drawn) was tested, and the T/C [7] was 97 % of control, the T/C (dose: 100.0 mg/kg/injection, schedule: Q04DX002 (ip), vehicle: saline with Tween-80) was 101 % of control and the T/C [8] was 112 % of control. The T/C (dose: 200.0 mg/kg/injection, schedule: Q04DX002 (ip), vehicle: saline with Tween-80) was 97 % of control, the T/C [9] was 104 % of control and the T/C (dose: 400.0 mg/kg/injection, schedule: Q04DX002 (ip), vehicle: saline with Tween-80) was 101 % of control.
For CCCCC(=O)N(CCCC)CCCC, the T/C (dose: 100.0 mg/kg/injection, schedule: Q04DX002 (ip), vehicle: saline) was 107 % of control, the T/C (dose: 200.0 mg/kg/injection, schedule: Q04DX002 (ip), vehicle: saline) was 114 % of control and the T/C (dose: 400.0 mg/kg/injection, schedule: Q04DX002 (ip), vehicle: saline) was 93 % of control.
In the case of COC(=O)/C=C(/Oc1cccc([N+](=O)[O-])c1)C(=O)OC, the T/C [13] is reported as 105 % of control, the T/C [14] is reported as 96 % of control and the T/C (dose: 300.0 mg/kg/injection, schedule: Q04DX003 (ip), vehicle: saline) is reported as 98 % of control.
With COc1ccc(C(=O)/C=C/c2ccc(N(C)C)cc2)cc1 the T/C (dose: 37.5 mg/kg/injection, schedule: Q04DX003 (ip), vehicle: saline) was 95 % of control, the T/C [13] was 90 % of control and the T/C [14] was 89 % of control.
With O=C(Nc1ccc(C2=NCCN2)cc1)c1ccc(NC(=O)c2ccc(C3=NCCN3)cc2)cc1 the T/C (dose: 1.88 mg/kg/injection, schedule: Q01DX Z (ip), vehicle: saline) was 101 % of control, the T/C (dose: 3.75 mg/kg/injection, schedule: Q01DX Z (ip), vehicle: saline) was 106 % of control and the T/C (dose: 7.5 mg/kg/injection, schedule: Q01DX Z (ip), vehicle: saline) was 117 % of control. For the same compound, the T/C (dose: 15.0 mg/kg/injection, schedule: Q01DX009 (ip), vehicle: saline) was 119 % of control, the T/C (dose: 30.0 mg/kg/injection, schedule: Q01DX009 (ip), vehicle: saline) was 190 % of control and the T/C (dose: 30.0 mg/kg/injection, schedule: Q01DX Z (ip), vehicle: carboxymethylcellulose (CMC)) was 203 % of control. For the same compound, the T/C (dose: 50.0 mg/kg/injection, schedule: Q01DX007 (oral), vehicle: carboxymethylcellulose (CMC)) was 103 % of control, the T/C (dose: 60.0 mg/kg/injection, schedule: Q01DX009 (ip), vehicle: saline) was 197 % of control and 232 % of control and the T/C (dose: 62.5 mg/kg/injection, schedule: Q## X010 (oral), vehicle: saline) was 101 % of control. For the same compound, the T/C (dose: 100.0 mg/kg/injection, schedule: Q01DX007 (oral), vehicle: carboxymethylcellulose (CMC)) was 100 % of control, the T/C (dose: 120.0 mg/kg/injection, schedule: Q01DX009 (ip), vehicle: saline) was 117 % of control and the T/C (dose: 125.0 mg/kg/injection, schedule: Q## X010 (oral), vehicle: saline) was 102 % of control. The T/C (dose: 200.0 mg/kg/injection, schedule: Q01DX007 (oral), vehicle: carboxymethylcellulose (CMC)) was 108 % of control, the T/C (dose: 400.0 mg/kg/injection, schedule: Q01DX007 (oral), vehicle: carboxymethylcellulose (CMC)) was 94 % of control and the T/C (dose: 500.0 mg/kg/injection, schedule: Q## X010 (oral), vehicle: saline) was 101 % of control. The T/C (dose: 800.0 mg/kg/injection, schedule: Q01DX007 (oral), vehicle: carboxymethylcellulose (CMC)) was 101 % of control.
With CCOc1ccc(Nc2ncnc3nc[nH]c23)cc1CN(CCCl)C(C)CCl (stereo not drawn) the T/C (dose: 1.0 mg/kg/injection, schedule: Q01DX Z (ip), vehicle: saline) was 112 % of control, the T/C (dose: 2.0 mg/kg/injection, schedule: Q01DX Z (ip), vehicle: saline) was 111 % of control and the T/C (dose: 4.0 mg/kg/injection, schedule: Q01DX Z (ip), vehicle: saline) was 97 % of control.
For O=C1c2ccccc2C(=O)N1N1C(=O)c2ccccc2C1=O, the T/C [7] was 96 % of control, the T/C [2] was 97 % of control and the T/C [8] was 91 % of control. For the same compound, the T/C [4] was 100 % of control, the T/C [9] was 96 % of control and the T/C [6] was 97 % of control.
With CCC(Nc1ccccc1)Nc1ccccc1 the T/C (dose: 100.0 mg/kg/injection, schedule: Q04DX003 (ip), vehicle: acetone) was 112 % of control, the T/C (dose: 200.0 mg/kg/injection, schedule: Q04DX003 (ip), vehicle: acetone) was 87 % of control and the T/C (dose: 400.0 mg/kg/injection, schedule: Q04DX003 (ip), vehicle: acetone) was 94 % of control.
For COc1cc(C=O)ccc1OC(=O)Nc1cccc(Cl)c1C, the T/C [10] was 97 % of control, the T/C [11] was 97 % of control and the T/C [12] was 103 % of control.
For N#CC(C#N)N=Nc1ccc(S(=O)(=O)Nc2ccccn2)cc1, the T/C (dose: 75.0 mg/kg/injection, schedule: Q01DX001 (ip), vehicle: saline) was 95 % of control and the T/C (dose: 150.0 mg/kg/injection, schedule: Q01DX001 (ip), vehicle: saline) was 90 % of control.

From PubChem BioAssay AID248 (DTP/NCI, 2004)
